In the NIST ThermoML archive (doi:10.1016/j.jct.2012.03.015):
± gives the expanded uncertainty stated by the source.

Assay: activity coefficient (dimensionless); of the first substance listed, at infinite dilution; xn = mol fraction of the nth substance listed
Details: 101 kPa, Liquid, Chromatography, x1 = 0

Compound	activity coefficient (318.15 K)	activity coefficient (328.15 K)	activity coefficient (338.15 K)	activity coefficient (348.15 K)	activity coefficient (358.15 K)	activity coefficient (368.15 K)
C1CCCCCC1 [cycloheptane] + COCC[N+]1(C)CCCC1.O=S(=O)([N-]S(=O)(=O)C(F)(F)F)C(F)(F)F	15.3 ± 1	14.1 ± 1	13.1 ± 0.9	12.3 ± 0.8	11.5 ± 0.8	10.8 ± 0.7
C1CCCCC1 [cyclohexane] + COCC[N+]1(C)CCCC1.O=S(=O)([N-]S(=O)(=O)C(F)(F)F)C(F)(F)F	11.1 ± 0.8	10.4 ± 0.7	9.69 ± 0.66	9.22 ± 0.63	8.65 ± 0.59	8.23 ± 0.56
C1=CCCCC1 [cyclohexene] + COCC[N+]1(C)CCCC1.O=S(=O)([N-]S(=O)(=O)C(F)(F)F)C(F)(F)F	6.04 ± 0.41	5.82 ± 0.4	5.63 ± 0.38	5.44 ± 0.37	5.27 ± 0.36	5.1 ± 0.35
C1CCCCCCC1 [cyclooctane] + COCC[N+]1(C)CCCC1.O=S(=O)([N-]S(=O)(=O)C(F)(F)F)C(F)(F)F	20.7 ± 1.4	19 ± 1.3	17.4 ± 1.2	16.2 ± 1.1	15 ± 1	14 ± 1
C1CCCC1 [cyclopentane] + COCC[N+]1(C)CCCC1.O=S(=O)([N-]S(=O)(=O)C(F)(F)F)C(F)(F)F	7.52 ± 0.51	7.19 ± 0.49	6.85 ± 0.47	6.54 ± 0.45	6.26 ± 0.43	5.98 ± 0.41
CCCCCCCCCC [decane] + COCC[N+]1(C)CCCC1.O=S(=O)([N-]S(=O)(=O)C(F)(F)F)C(F)(F)F	83.1 ± 5.7	75.5 ± 5.2	68.1 ± 4.7	61.8 ± 4.2	56.1 ± 3.8	51.3 ± 3.5
CCOCC [diethyl ether] + COCC[N+]1(C)CCCC1.O=S(=O)([N-]S(=O)(=O)C(F)(F)F)C(F)(F)F	2.79 ± 0.19	2.79 ± 0.19	2.78 ± 0.19	2.78 ± 0.19	2.78 ± 0.19	2.78 ± 0.19
CC(C)OC(C)C [diisopropyl ether] + COCC[N+]1(C)CCCC1.O=S(=O)([N-]S(=O)(=O)C(F)(F)F)C(F)(F)F	6.63 ± 0.45	6.55 ± 0.45	6.46 ± 0.44	6.39 ± 0.44	6.31 ± 0.43	6.23 ± 0.42
CCCOCCC [dipropyl ether] + COCC[N+]1(C)CCCC1.O=S(=O)([N-]S(=O)(=O)C(F)(F)F)C(F)(F)F	7.22 ± 0.49	7.03 ± 0.48	6.82 ± 0.46	6.64 ± 0.45	6.47 ± 0.44	6.32 ± 0.43
CCO [ethanol] + COCC[N+]1(C)CCCC1.O=S(=O)([N-]S(=O)(=O)C(F)(F)F)C(F)(F)F	1.77 ± 0.12	1.63 ± 0.11	1.48 ± 0.1	1.38 ± 0.09	1.28 ± 0.08	1.2 ± 0.08
CCOC(C)=O [ethyl acetate] + COCC[N+]1(C)CCCC1.O=S(=O)([N-]S(=O)(=O)C(F)(F)F)C(F)(F)F	0.95 ± 0.06	0.97 ± 0.06	0.98 ± 0.06	1 ± 0.06	1.02 ± 0.06	1.03 ± 0.06
CCc1ccccc1 [ethylbenzene] + COCC[N+]1(C)CCCC1.O=S(=O)([N-]S(=O)(=O)C(F)(F)F)C(F)(F)F	2.23 ± 0.15	2.24 ± 0.15	2.24 ± 0.15	2.25 ± 0.15	2.25 ± 0.15	2.26 ± 0.15
CCCCCCC [heptane] + COCC[N+]1(C)CCCC1.O=S(=O)([N-]S(=O)(=O)C(F)(F)F)C(F)(F)F	28 ± 1.9	25.9 ± 1.8	24.2 ± 1.7	22.6 ± 1.5	21.1 ± 1.4	19.7 ± 1.3
C=CCCCC [hex-1-ene] + COCC[N+]1(C)CCCC1.O=S(=O)([N-]S(=O)(=O)C(F)(F)F)C(F)(F)F	9.74 ± 0.66	9.34 ± 0.64	8.92 ± 0.61	8.61 ± 0.59	8.24 ± 0.56	7.96 ± 0.54
CCCCCC [hexane] + COCC[N+]1(C)CCCC1.O=S(=O)([N-]S(=O)(=O)C(F)(F)F)C(F)(F)F	19 ± 1.3	17.8 ± 1.2	16.7 ± 1.1	15.9 ± 1.1	15 ± 1	14.3 ± 1
CO [methanol] + COCC[N+]1(C)CCCC1.O=S(=O)([N-]S(=O)(=O)C(F)(F)F)C(F)(F)F	1.37 ± 0.09	1.27 ± 0.08	1.18 ± 0.08	1.1 ± 0.07	1.03 ± 0.06	0.972 ± 0.061
CCCC(=O)OC [methyl butanoate] + COCC[N+]1(C)CCCC1.O=S(=O)([N-]S(=O)(=O)C(F)(F)F)C(F)(F)F	1.29 ± 0.08	1.31 ± 0.09	1.33 ± 0.09	1.35 ± 0.09	1.36 ± 0.09	1.38 ± 0.09
COC(C)=O [methyl ethanoate] + COCC[N+]1(C)CCCC1.O=S(=O)([N-]S(=O)(=O)C(F)(F)F)C(F)(F)F	0.71 ± 0.05	0.73 ± 0.05	0.74 ± 0.05	0.76 ± 0.05	0.77 ± 0.05	0.78 ± 0.05
CCC(=O)OC [methyl propanoate] + COCC[N+]1(C)CCCC1.O=S(=O)([N-]S(=O)(=O)C(F)(F)F)C(F)(F)F	0.92 ± 0.06	0.94 ± 0.06	0.96 ± 0.06	0.98 ± 0.06	0.99 ± 0.06	1.01 ± 0.06
CC1CCCCC1 [methylcyclohexane] + COCC[N+]1(C)CCCC1.O=S(=O)([N-]S(=O)(=O)C(F)(F)F)C(F)(F)F	15.4 ± 1.1	14.4 ± 1	13.5 ± 0.9	12.7 ± 0.9	12 ± 0.8	11.2 ± 0.8
CCCCCCCCC [nonane] + COCC[N+]1(C)CCCC1.O=S(=O)([N-]S(=O)(=O)C(F)(F)F)C(F)(F)F	58.1 ± 4	52.9 ± 3.6	48.4 ± 3.3	44.3 ± 3	41 ± 2.8	37.8 ± 2.6
C=CCCCCCC [oct-1-ene] + COCC[N+]1(C)CCCC1.O=S(=O)([N-]S(=O)(=O)C(F)(F)F)C(F)(F)F	20.8 ± 1.4	19.5 ± 1.3	18.2 ± 1.2	17.3 ± 1.2	16.3 ± 1.1	15.6 ± 1.1
CCCCCCCC [octane] + COCC[N+]1(C)CCCC1.O=S(=O)([N-]S(=O)(=O)C(F)(F)F)C(F)(F)F	40.5 ± 2.8	36.9 ± 2.5	33.9 ± 2.3	31.4 ± 2.1	29 ± 2	27 ± 1.8
